Reference: patent US20240174641A1, “HETEROCYCLIC COMPOUNDS CAPABLE OF […]” (Boehringer Ingelheim International GmbH, priority 2022, published 2024)

What was measured:
dog STING (dSTING) = assay: Dog differential scanning fluorimetry (DSF) assay, thermal shift of dog STING protein; format: binding; settings: DSF (dDSF); 100 μM compound, 3 μM dog STING protein; Tm with ligand minus Tm of protein alone
Text: The protein used for the biophysical experiments was a recombinant dog STING protein comprising its cytosolic cGAMP binding ectodomain. A codon optimized DNA sequence (for expression in Escherichia coli) encoding amino acid residues 149 to 375 of dog STING was synthesized by GeneArt (Regensburg, Germany) and inserted into a pET17b E. coli expression vector. The protein construct encodes an N-terminal 8×His-tag followed by tobacco etch virus protease (TEV) cleavage site and the above STING gene sequence. The resulting protein sequence for the used dog STING protein (SEQ ID No. 1) is listed below:
For expression of the above recombinant dog STING, the construct was transformed into E. coli BL21 DE3 strain and grown in shake flasks in LB-medium at 15° C. Expression was induced by addition of isopropyl β-D-1-thiogalactopyranoside to a final concentration of 1 mM and cultures shaken overnight. Cell pellets were centrifuged and stored at −70° C. until further use. Protein was purified by cell thawing in lysis buffer (20 mM TRIS-HCl, pH 8, 500 mM NaCl, 1 mM DTT, 0.5 mg/ml lysozyme, Complete Protease Inhibitor (Roche) and DNase (Roche)), followed by metal affinity purification using Ni-NTA resins and elution buffer consisting of 20 mM TRIS-HCl, pH 8, 500 mM NaCl, 1 mM DTT, 300 mM imidazole. Cleavage of the His-Tag using TEV-protease took place during dialysis in size exclusion buffer (20 mM TRIS-HCl, pH 8, 100 mM NaCl, 1 mM DTT) over night. To further purify the target protein a reverse Nickel affinity column was used and the flow through was applied to a size exclusion chromatography. The peak fraction was collected and concentrated to 5 mg/mL.
Dye fluorescence is quenched in aqueous environment and increases upon association of the dye with the hydrophobic parts of the unfolding protein. […] The inflection point of the curve represents the “melting” temperature of the protein (Tm) which is calculated numerically using the Boltzmann equation.
The thermal stability of the dog STING protein was measured in assay buffer containing 20 mM Tris, 150 mM NaCl at pH7.5. The assay uses 384-Well qPCR Plates (Catalog #781358, BRAND), Microseal® ‘B’ Adhesive Seals for PCR Plates (Catalog #MSB-1001, BIO-RAD) and was run on a CFX384 Real-Time System (Bio-Rad). A DMSO stock solution of SYPRO orange (SIGMA 55692-500UL) was prepared. Compound stock solutions (10 mM in DMSO) were diluted 1:2 in DMSO to an intermediate compound concentration of 5 mM and then further diluted 1:40 in assay buffer resulting in a compound concentration of 125 μM and 2.5% DMSO. Fluorescent dye stock solution (5000×SYPRO Orange) was then mixed with target protein and buffer to a concentration of 15 μM Protein and 25×SYPRO Orange. 2 μl of this protein-dye-mixture was added to 8 μl compound solution. Final volume was 10 μL. 3-6 well positions were used as negative control (protein with 2% DMSO). The plates were prepared for duplicate measurement and centrifuged for 2 min at 1000 g. In the measurement, 160 cycles of 0.5° C. were used (temperature ramp 15 s/cycle, 15° C. to 95° C.).
Final Assay concentrations for compound characterization were 100 μM compound, 3 μM target protein, 5×SYPRO Orange, and 2% DMSO in 10 μl. All dispensing steps were performed using a HamiltonStar pipetting robot (Hamilton).
Dissociation curves were processed in Bio-Rad CFX Manager. Peak type was set to “negative”. Compound codes for screen were assigned in the plate layout.
Two replicates of TM measurements were averaged, and the standard deviation was calculated. In cases of SD>1.5° C. the measurement was repeated.
The melting point (Tm) obtained for STING protein alone was subtracted from T obtained for protein incubated with ligand to generate ΔTm values.

STING = STING (Canis lupus familiaris, UniProt A0A8I3MH52); assay: Dog whole blood (dWB) assay, IFNb secretion by ELISA; format: cell-based; settings: canine Interferon-beta (IFNb) ELISA, 4 h incubation at 37° C.
Chain of STING (A0A8I3MH52 1-374): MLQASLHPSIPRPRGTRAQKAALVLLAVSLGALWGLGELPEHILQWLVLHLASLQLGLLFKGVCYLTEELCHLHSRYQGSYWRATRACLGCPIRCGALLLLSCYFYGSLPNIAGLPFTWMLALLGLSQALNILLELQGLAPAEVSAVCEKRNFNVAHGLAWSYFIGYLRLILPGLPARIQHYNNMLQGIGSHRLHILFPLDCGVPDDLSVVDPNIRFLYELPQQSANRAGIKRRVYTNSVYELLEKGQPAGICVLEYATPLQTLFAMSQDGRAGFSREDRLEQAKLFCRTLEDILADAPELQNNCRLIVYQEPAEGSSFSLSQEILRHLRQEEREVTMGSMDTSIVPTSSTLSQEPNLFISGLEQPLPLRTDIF
Protocol: For the detection of STING activation in physiological environment dog whole blood (dWB) was stimulated by the cyclic dinucleotide cGAMP or a test compound. Pathway activity was monitored by measuring the IFNb production.
Compounds were delivered as 10 mM DMSO solution, diluted and transferred by using an Echo acoustic dispenser to the 384 well assay plate (Greiner #781182), pre-filled with 10 μl 1×HBSS in each well (10×HBSS (+Ca/+Mg), #14065-049, Gibco). Typically, 8 concentrations were used with the highest concentration at 10 μM in the final assay volume followed by approximately 1:4 dilution steps. DMSO concentration was set to 0.1% in the final assay volume. The 384-well assay plate contained 20 test compounds and DMSO in control and cGAMP standard wells. The dog whole blood was collected as Na-Citrate blood (e.g., 3.8% in Monovettes from Sarstedt) and kept at 4° C. overnight until use in the assay. 80 μl of the whole blood samples were transferred to each well of the 384-well assay plates filled with compound/1×HBSS. Blood plates were kept at room temperature for 60 minutes and continuous shaking with 450 rpm, covered with the lid, but not sealed. A 10×cGAMP assay solution was diluted from a 2 mM stock solution in 1×HBSS immediately before use at room temperature. 10 μl of the 10×cGAMP/HBSS were added to the high control wells, whereas HBSS only was added to all compound and low control wells. After covering assay plates with the lid, blood plates were kept for a 4 h incubation at 37° C. in the incubator, without shaking. For the detection of IFNb in dog plasma the ELISA Kit for Canine Interferon Beta (Biotrend #SEA222Ca) was used. Whole blood assay plates were centrifuged at 1000 g for 10 minutes at 8° C. […] was transferred with a 96 well pipetting robotics from the 384 well whole blood plate to the corresponding 96 well ELISA plate, pre-filled with 60 μl assay diluent in each well. Plates were sealed with microplate seals and kept at 4° C. overnight again. ELISA plates were brought to room temperature, followed by a 1 h incubation at 37° C. in the incubator. Detection Reagent A working solution was prepared by diluting Detection Reagent A 1:100 in Assay Reagent A. Liquid was then removed from the 96 well ELISA plate to add 100 μL Detection Reagent A working solution to each well. ELISA plates were covered with the plate sealer and incubated for 1 hour at 37° C. in the incubator. The 1× Wash buffer was prepared by diluting the 30× Wash Buffer Concentrate in H2O. Detection Reagent B working solution was prepared by diluting Detection Reagent B 1:100 in Assay Reagent B. The ELISA plates were washed three times with 350 μl wash buffer and afterwards inverted and blotted against absorbent paper to remove any liquid. 100 μL of Detection Reagent B working solution was added to each well of the ELISA plates, which are then covered with the plate sealer and incubated for 30 minutes at 37° C. in the incubator. After incubation the ELISA assay plates were washed five times with 350 μl wash buffer and were again inverted and blotted against absorbent paper to remove any remaining liquid. 90 μL of TMB Substrate was added to each well of the ELISA plates, which were then covered with the plate sealer and incubated for 15 minutes at 37° C. in the incubator. The reaction was stopped by adding 50 μL stop solution and absorbance was measured at 450 nm immediately.
For data evaluation and calculation, % control calculation of each well was based on the mean of high (cGAMP stimulated control) and mean of low (unstimulated control) controls by using the following standard 4 parameter logistic regression formula:
[y=(a−d)/(1+(x/c)^b)+d] • a=low value, • d=high value, • x=conc M, • c=EC50 M, • b=slope. Dog Liver Microsome (dLM) Assay

Molecule	Delta TM (dog STING (dSTING)) [°C]	EC50 (STING) [nM]
2-[4-(5-{3″-fluoro-2″,7-dimethyl- 1H,2″H-[3,4″-biindazol]-1-yl}pyridin-2- yl)morpholin-2-yl]acetic acid [Example 18]	28.8	1070
Cc1cccc2c(-c3cccc4nn(C)c(F)c34)nn(-c3ccc(N4CC5CCC4CC5C(=O)O)nc3)c12 (single isomer, unassigned) [Example 20-3, 2-(5-{3'-fluoro-2',7-dimethyl-1H,2'H-[3,4'-biindazol]-1-yl}pyridin-2-yl)-2-azabicyclo[2.2.2]octane-5-carboxylic acid]	35.9	195
Cc1cccc2c(-c3cccc4nn(C)c(F)c34)nn(-c3ccc(N4CC5CCC4CC5C(=O)O)nc3)c12 (single isomer, unassigned) [Example 20-4, 2-(5-{3'-fluoro-2',7-dimethyl-1H,2'H-[3,4'-biindazol]-1-yl}pyridin-2-yl)-2-azabicyclo[2.2.2]octane-5-carboxylic acid]	36.9	207
Cc1cccc2c(-c3c(F)ccc4nn(C)cc34)nn(-c3ccc(N4CC5CCC4CC5C(=O)O)nc3)c12 (single isomer, unassigned) [Example 28-3]	37.1	222
Cc1cccc2c(-c3c(F)ccc4nn(C)cc34)nn(-c3ccc(N4CC5CCC4CC5C(=O)O)nc3)c12 (single isomer, unassigned) [Example 28-4]	37.9	206
Cc1cccc2c(-c3c(F)cc(F)c4nn(C)cc34)nn(-c3ccc(N4C[C@@H]5C[C@H]4C[C@H]5C(=O)O)nc3)c12 (single isomer, unassigned) [Example 47-1]	34.0	628
Cc1cccc2c(-c3c(F)cc(F)c4nn(C)cc34)nn(-c3ccc(N4C[C@H]5C[C@@H]4C[C@@H]5C(=O)O)nc3)c12 (single isomer, unassigned) [Example 47-2]	35.5	200
Cc1cccc2c(-c3c(F)cc(F)c4nn(C)cc34)nn(-c3ccc(N4CC5CCC4CC5C(=O)O)nc3)c12 (single isomer, unassigned) [Example 48-3]	35.4	184
Cc1cccc2c(-c3c(F)cc(F)c4nn(C)cc34)nn(-c3ccc(N4CC5CCC4CC5C(=O)O)nc3)c12 (single isomer, unassigned) [Example 48-4]	36.1	169
Cc1cccc2c(-c3cccc4nn(C)c(F)c34)nn(-c3ccc(N4CCOC(CC(=O)O)C4)nc3)c12 (single isomer, unassigned) [Example 72-1]	30.0	810
Cc1cccc2c(-c3cccc4nn(C)c(F)c34)nn(-c3ccc(N4CCOC(CC(=O)O)C4)nc3)c12 (single isomer, unassigned) [Example 72-3]	28.5	5230
Cc1cccc2c(-c3cccc4nn(C)c(F)c34)nn(-c3ccc(N4CCC(C(=O)O)CC4)nc3)c12 [Example 2, 1-(5-{3″-Fluoro-2″,7-dimethyl-1H,2″H-[3,4″-biindazol]-1-yl}pyridin-2-yl)piperidine-4-carboxylic acid]	34.5	236
Cc1cccc2c(-c3ccc(F)c4nn(C)cc34)nn(-c3ccc(N4C[C@@H]5[C@H](C4)[C@H]5C(=O)O)nc3)c12 [Example 3, (1R,5S,6R)-3-(5-{7″-Fluoro-2″,7-dimethyl-1H,2″H-[3,4″-biindazol]-1-yl}pyridin-2-yl)-3-azabicyclo[3.1.0]hexane-6-carboxylic acid]	32.2	730
CC(=O)N1CCN(c2ccc(-n3nc(-c4ccc(F)c5nn(C)c(F)c45)c4cccc(C)c43)cn2)CC1 [Example 57, 1-[4-(5-{3″,7″-difluoro-2″,7-dimethyl-1H,2″H-[3,4″-biindazol]-1-yl}pyridin-2-yl)piperazin-1-yl]ethan-1-one]	27.5	–
Cc1c(F)ccc2c(-c3c(F)cc(F)c4nn(C)cc34)nn(-c3ccc(N4C[C@@H]5[C@H](C4)[C@H]5C(=O)O)nc3)c12 [Example 69, (1R,5S,6S)-3-(5-{5″,6,7″-trifluoro-2″,7-dimethyl-1H,2″H-[3,4″-biindazol]-1-yl}pyridin-2-yl)-3-azabicyclo[3.1.0]hexane-6-carboxylic acid]	35.0	–
CC(=O)N1CCN(c2ccc(-n3nc(-c4c(F)cc(F)c5nn(C)cc45)c4ccc(F)c(C)c43)cn2)CC1 [Example 71, 1-[4-(5-{5″,6,7″-trifluoro-2″,7-dimethyl-1H,2″H-[3,4″-biindazol]-1-yl}pyridin-2-yl)piperazin-1-yl]ethan-1-one]	31.3	–
Cc1cccc2c(-c3cc(F)cc4nn(C)c(F)c34)nn(-c3ccc(N4C[C@@H]5[C@H](C4)[C@H]5C(=O)O)nc3)c12 [Example 75, (1R,5S,6R)-3-(5-{3″,6″-difluoro-2″,7-dimethyl-1H,2″H-[3,4″-biindazol]-1-yl}pyridin-2-yl)-3-azabicyclo[3.1.0]hexane-6-carboxylic acid]	21.8	–
